Results taken from US8440724B2, “Inhibiting neurotransmitter reuptake” (Mayo Foundation for Medical Education and Research, priority 2008, dated 2013).
Read-outs that look alike come from different tables or passages of the source.

Legend:
[1] = molecular target: T1, human serotonin transporter (hSERT) (Homo sapiens, UniProt P31645); assay: Radioligand binding to cloned hSERT, [3H]citalopram, HEK-293 cell membranes
T1 construct: expressed in transfected cells; host or cells: HEK-293, stably transfected
Experimental: (§1) HEK-293 cells expressing the recombinant hSERT or hDAT were incubated with Dulbecco's modified Eagles medium (MEM) supplemented with 0.1 mM nonessential amino acid solution for MEM, 5% v/v fetal bovine serum and 1 U/mL penicillin/streptomycin solution. Cells expressing the hNET transporter were incubated with Dulbecco's modified Eagles medium supplemented with 10% v/v fetal bovine serum and 100 U/mL penicillin/streptomycin solution and 2 mM L-glutamine. The cells were grown until 70-80% confluent on 175 cm^2 flasks in a humidified 10% CO2/90% air environment at 37° C., with the selecting antibiotic Geneticin sulfate at 250 μg/mL. The cells were incubated in 10% CO2, 90% air at 37° C. and 100% humidity.
(§2) Cell membranes containing hSERT, hNET, or hDAT were prepared from the cell lines to assay ligand binding for each of the transporters. […] The washed cells were incubated for 5 minutes at 37° C. in 10 mL solution 1 containing 100 mM ethylene glycol-bis N,N,N′,N′-tetraacetic acid (EGTA). The cells were then scraped from the flask surface with a rubber spatula, placed into a centrifuge tube, and collected by centrifugation at 1000×g for 5 minutes at 4° C. The resulting supernatant was discarded, and the cell pellet was resuspended in 0.5 to1.0 mL of the appropriate binding buffer (described below). The resuspended cell pellet was homogenized using a Polytron for 10 seconds at setting 6. The resulting homogenate was centrifuged at about 36,000×g for 10 minutes at 4° C. The supernatant was discarded, and the pellet was resuspended in the same volume of the appropriate binding buffer and centrifuged again. The supernatant was discarded, and the final pellet containing cell membranes was resuspended in the appropriate binding buffer and stored at −80° C. until use.
Radioligand binding assays for the indicated transporters were performed as follows. To assess binding to the cloned hSERT, cells expressing hSERT were homogenized in 50 mM Tris-HCl with 120 mM NaCl and 5 mM KCl (pH 7.4). The binding reaction consisted of 10 μg cell membrane protein, […] [^3H]citalopram (citalopram, [N-methyl-^3H], specific activity 79.0 Ci/mmol; PerkinElmer, Boston, Mass.), and varying concentrations of either unlabeled citalopram or the test compound. A reaction to determine non-specific binding consisted of 10 μg cell membrane protein, 0.5 nM [^3H]citalopram, and 1 μM final concentration of unlabeled citalopram. The reactions were incubated at 22° C. for 60 minutes. Following incubation, the reactions were terminated by rapid filtration through separate GF/B filter strips pretreated with 0.2% polyethylenimine in a 48-well Brandel cell harvester. The cell membrane-containing filter strips were then rinsed five times with ice-cold 0.9% NaCl. After rinsing, individual filters were cut from the strip and placed in a scintillation vial containing 6.5 mL of Redi-Safe (Beckman-Coulter, Fullerton, Calif.).
(§3) The program was modified to calculate the Hill coefficient (nH). Data are presented as geometric mean±S.E.M. of at least three independent experiments. One-component models and two-component models were compared using the root mean square error of each fit and the F test.

[2] = molecular target: T2, human norepinephrine transporter (hNET) (Homo sapiens, UniProt P23975); assay: Radioligand binding to cloned hNET, [3H]nisoxetine, HEK-293 cell membranes
T2 construct: expressed in transfected cells; host or cells: HEK-293, stably transfected
Experimental: as §1, §2
To assess binding to the cloned hNET, cells expressing hNET were homogenized in 50 mM Tris-HCl with 300 mM NaCl and 5 mM KCl (pH 7.4). The binding reaction consisted of 5 μg cell membrane protein, 0.5 nM [^3H]nisoxetine (nisoxetine HCl, [N-methyl-^3H], specific activity 82.0 Ci/mmol; Amersham, Arlington Hts., Ill.), and varying concentrations of either unlabeled nisoxetine or the test compound. A reaction to determine non-specific binding consisted of 5 μg cell membrane protein, 0.5 nM [^3H]nisoxetine, and 1 μM final concentration of unlabeled nisoxetine. The reactions were incubated at 22° C. for 60 minutes. Following incubation, the reactions were terminated by rapid filtration through separate GF/B filter strips pretreated with 0.2% polyethylenimine in a 48-well Brandel cell harvester. The cell membrane-containing filter strips were then rinsed five times with ice-cold 0.9% NaCl. After rinsing, individual filters were cut from the strip and placed in a scintillation vial containing 6.5 mL of Redi-Safe (Beckman-Coulter, Fullerton, Calif.).
as §3

[3] = molecular target: T3, human dopamine transporter (hDAT) (Homo sapiens, UniProt Q01959); assay: Radioligand binding to cloned hDAT, [3H]WIN35428, HEK-293 cell membranes
T3 construct: expressed in transfected cells; host or cells: HEK-293, stably transfected
Experimental: as §1, §2
To assess binding to the cloned hDAT, cells expressing hDAT were homogenized in 50 mM Tris-HCl with 120 mM NaCl (pH 7.4). The binding reaction contained 15 μg cell membrane protein, 1 nM [^3H]WIN35428 (WIN35428, [N-methyl-^3H], specific activity 85.9 Ci/mmol; PerkinElmer, Boston, Mass.), and varying concentrations of either unlabeled WIN35428 or the test compound. A reaction to determine non-specific binding contained 15 μg cell membrane protein, 1 nM [^3H]WIN35428, and 10 μM final concentration of unlabeled WIN35428. The reactions were incubated at 22° C. for 1 hour. Following incubation, the reactions were terminated by rapid filtration through separate GF/B filter strips pretreated with 0.2% polyethylenimine in a 48-well Brandel cell harvester. The cell membrane-containing filter strips were then rinsed five times with ice-cold 0.9% NaCl. After rinsing, individual filters were cut from the strip and placed in a scintillation vial containing 6.5 mL of Redi-Safe (Beckman-Coulter, Fullerton, Calif.).
as §3

[4] = system: hSERT, hNET, hDAT; assay: Human transporter binding: rank order and range of potency over the three transporters; details: for Potency (rank-order of potency of binding; S = hSERT, N = hNET, D = hDAT): from KD values; for Potency Range (difference between most potent and least potent binding): ratio of KD over hSERT, hNET, hDAT
Text: as §3

[5] = molecular target: T4, CYP2D6 (Homo sapiens, UniProt P10635); assay: CYP2D6 inhibition, CYP2D6/AMMC kit (BD Biosciences), fluorescent substrate; assay type: in vitro ADME
T4 construct: purchased BD Biosciences 459200
Text: This kit includes the use of a fluorescent P450 substrate (AMMC or 3-[2-(N,N-diethyl-N-methylamino)ethyl]-7-methoxy-4-methylcoumarin) and recombinant human P450.

[6] = molecular target: hERG (Homo sapiens, UniProt Q12809); assay: hERG assay: block of rubidium ion (Rb+) efflux from cells expressing hERG; details: for Blocking of hERG channel compared with PRC200-SS: in words
Experimental: Human “ether-a-go-go” (hERG) is an ion channel. Blockade of this channel can be predictive of causing cardiac arrhythmias in humans. hERG assays were performed to measure the ability of a compound to block rubidium ion (Rb^+) efflux from cells expressing hERG. Cells were pre-loaded with Rb^+, incubated with test compound, and then exposed to a buffer that opens the channel and allows the efflux of ions. Compounds as powder were dissolved in 100% DMSO to prepare 100 mM stock solutions. […] The stocks were stored at 23° C.
The range of doses for the test compounds was 30 nM through 100,000 nM.

[7] = system: Male Sprague-Dawley rats; assay: Forced swim test in rats; assay type: in vivo, rat; details: 5 mg/kg IP; for Antidepressant activity in forced swim test compared with imipramine (15 mg/kg IP): FIG. 12A
Experimental: When rats are placed in a cylinder of water from which they cannot escape, they will remain immobile in the water for the majority of the test.
Water was changed between trials, and the procedure involved a pretest and a 5-minute test separated by 24 hours. During the pretest, rats (adapted to the experimental room for no less than one hour) were placed in the cylinder for 15 minutes. Following this initial exposure, the rats were dried with towels and transferred to a “drying cage” situated under a warming lamp. […] The following day, rats were transferred to the experimental room and acclimated for at least one hour.
The rat was considered immobile when floating motionless or making only those movements necessary to keep its head above the surface of the water. Scores for each behavior (swimming or immobility) were expressed as total counts per 5-minute session. Statistical analysis was performed using ANOVA followed by the Tukey test for post-hoc comparisons.

[8] = molecular target: T5, rat serotonin transporter, synaptosomal preparations (Rattus norvegicus, UniProt P31652); assay: Inhibition of [3H]5-HT reuptake in rat brain synaptosomes (frontal cortex); assay type: biochemical
T5 construct: from tissue; host or cells: rat frontal cortex synaptosomes (male Sprague-Dawley)
Experimental: (§4) The dissected tissues were separately homogenized in 20 volumes (cortical) or 40 volumes (striatal) of ice-cold, oxygenated HEPES buffer 0.32 M sucrose containing 11 mM glucose (pH 7.4) in a glass Potter-Elvehjem homogenizer with Teflon® pestle (8 strokes, 900 rpm). The homogenates were centrifuged at 1,000×g for 10 minutes. The resulting supernatant was decanted and further centrifuged at 20,000×g for 20 minutes at 4° C. […] The synaptosomal protein concentration was determined by using the BCA assay (Pierce Biotechnology Inc, Rockford, Ill.), according to the manufacturer's instructions. Synaptosomal protein (1.0-2.5 mg) was suspended in 1 mL oxygenated incubation buffer as defined above. Test amine compound was pre-incubated with the synaptosomal preparation for 30 minutes at 37° C. in a shaking water bath (80 oscillations/minute).

[9] = molecular target: T6, rat norepinephrine transport, synaptosomal preparations (Rattus norvegicus, UniProt Q63380); assay: Inhibition of [3H]NE reuptake in rat brain synaptosomes (occipital cortex); assay type: biochemical
T6 construct: from tissue; host or cells: rat occipital cortex synaptosomes (male Sprague-Dawley)
Experimental: as §4

[10] = molecular target: T7, rat dopamine transporter, synaptosomal preparations (Rattus norvegicus, UniProt P23977); assay: Inhibition of [3H]DA reuptake in rat brain synaptosomes (striatum); assay type: biochemical
T7 construct: and striatal tissues for transport of dopamine; from tissue; host or cells: rat striatum synaptosomes (male Sprague-Dawley)
Experimental: as §4

[11] = system: rat 5-HT, NE and DA transport, synaptosomal preparations; assay: Rat brain synaptosomal transport: rank order of potency; assay type: biochemical; details: from Ki values; S = 5HT, N = NE, D = DA
Experimental: as §4

[12] = molecular target: human norepinephrine transporter (Homo sapiens, UniProt P23975); assay: Inhibition of [3H]NE transport into HEK-293 cells expressing the human transporter
[13] = molecular target: human serotonin transporter (Homo sapiens, UniProt P31645); assay: Inhibition of [3H]5-HT transport into HEK-293 cells expressing the human transporter
[14] = recombinant human P450, AMMC substrate, read-out: Mean CYP2D6 (IC50)

T1 sequence (P31645 whole entry): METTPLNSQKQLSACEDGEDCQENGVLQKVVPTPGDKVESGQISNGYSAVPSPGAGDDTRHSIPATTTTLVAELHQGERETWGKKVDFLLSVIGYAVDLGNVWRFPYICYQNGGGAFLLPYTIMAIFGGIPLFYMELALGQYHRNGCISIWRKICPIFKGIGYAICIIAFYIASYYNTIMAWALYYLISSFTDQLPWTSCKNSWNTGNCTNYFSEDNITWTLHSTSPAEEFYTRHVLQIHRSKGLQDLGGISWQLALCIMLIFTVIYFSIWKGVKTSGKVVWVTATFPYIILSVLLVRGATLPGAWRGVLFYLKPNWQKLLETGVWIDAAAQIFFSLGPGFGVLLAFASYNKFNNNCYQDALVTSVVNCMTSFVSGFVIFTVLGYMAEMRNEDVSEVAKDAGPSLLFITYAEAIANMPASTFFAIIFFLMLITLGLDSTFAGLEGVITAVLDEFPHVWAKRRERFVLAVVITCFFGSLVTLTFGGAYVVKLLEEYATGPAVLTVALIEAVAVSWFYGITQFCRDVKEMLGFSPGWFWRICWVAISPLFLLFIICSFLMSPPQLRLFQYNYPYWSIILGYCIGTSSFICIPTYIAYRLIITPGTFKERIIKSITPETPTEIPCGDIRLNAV
Chain of hERG (Q12809 whole entry): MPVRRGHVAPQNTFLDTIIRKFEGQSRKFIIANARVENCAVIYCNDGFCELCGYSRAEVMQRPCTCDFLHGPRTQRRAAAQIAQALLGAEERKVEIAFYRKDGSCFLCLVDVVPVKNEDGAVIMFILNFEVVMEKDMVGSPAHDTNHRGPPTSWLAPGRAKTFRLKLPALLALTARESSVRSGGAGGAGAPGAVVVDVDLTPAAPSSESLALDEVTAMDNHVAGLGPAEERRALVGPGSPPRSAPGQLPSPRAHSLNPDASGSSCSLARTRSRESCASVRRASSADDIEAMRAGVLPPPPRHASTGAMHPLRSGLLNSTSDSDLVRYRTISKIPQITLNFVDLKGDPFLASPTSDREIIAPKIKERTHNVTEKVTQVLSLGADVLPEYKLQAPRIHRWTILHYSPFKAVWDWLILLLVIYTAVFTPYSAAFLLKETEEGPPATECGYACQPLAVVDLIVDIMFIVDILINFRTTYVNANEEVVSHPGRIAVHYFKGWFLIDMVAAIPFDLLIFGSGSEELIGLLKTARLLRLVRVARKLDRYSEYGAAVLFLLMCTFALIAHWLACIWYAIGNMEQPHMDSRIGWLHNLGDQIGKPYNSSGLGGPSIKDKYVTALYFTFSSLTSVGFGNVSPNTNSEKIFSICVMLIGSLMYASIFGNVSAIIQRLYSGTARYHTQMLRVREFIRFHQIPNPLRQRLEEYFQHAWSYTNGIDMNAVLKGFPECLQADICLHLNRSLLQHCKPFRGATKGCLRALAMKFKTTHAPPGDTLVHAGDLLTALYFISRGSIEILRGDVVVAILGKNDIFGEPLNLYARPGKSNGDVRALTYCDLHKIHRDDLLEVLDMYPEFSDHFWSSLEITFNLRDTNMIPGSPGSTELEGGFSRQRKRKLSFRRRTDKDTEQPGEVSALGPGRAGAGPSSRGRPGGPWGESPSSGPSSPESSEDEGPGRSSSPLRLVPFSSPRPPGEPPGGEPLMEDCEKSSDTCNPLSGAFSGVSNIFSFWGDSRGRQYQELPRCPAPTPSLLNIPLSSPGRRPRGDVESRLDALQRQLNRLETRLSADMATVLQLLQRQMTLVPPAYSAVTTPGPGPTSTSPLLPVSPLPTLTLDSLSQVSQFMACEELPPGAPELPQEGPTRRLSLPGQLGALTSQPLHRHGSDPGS
T3 sequence (Q01959 whole entry): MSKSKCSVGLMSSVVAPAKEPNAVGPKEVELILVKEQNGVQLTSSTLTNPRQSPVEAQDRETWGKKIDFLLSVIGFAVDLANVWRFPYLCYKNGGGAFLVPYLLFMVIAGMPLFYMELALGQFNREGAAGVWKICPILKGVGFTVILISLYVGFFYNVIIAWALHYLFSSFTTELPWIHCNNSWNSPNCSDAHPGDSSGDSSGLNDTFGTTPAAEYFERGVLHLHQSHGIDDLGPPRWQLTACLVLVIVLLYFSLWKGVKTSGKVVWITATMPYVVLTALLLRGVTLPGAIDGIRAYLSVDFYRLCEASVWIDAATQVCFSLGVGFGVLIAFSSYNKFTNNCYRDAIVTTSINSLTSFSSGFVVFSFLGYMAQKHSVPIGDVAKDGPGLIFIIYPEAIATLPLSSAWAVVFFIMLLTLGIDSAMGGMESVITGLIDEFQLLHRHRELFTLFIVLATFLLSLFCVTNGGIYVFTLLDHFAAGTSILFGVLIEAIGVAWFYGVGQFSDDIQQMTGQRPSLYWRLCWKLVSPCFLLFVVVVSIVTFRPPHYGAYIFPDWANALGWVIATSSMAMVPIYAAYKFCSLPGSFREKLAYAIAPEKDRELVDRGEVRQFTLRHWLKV
T4 sequence (P10635 whole entry): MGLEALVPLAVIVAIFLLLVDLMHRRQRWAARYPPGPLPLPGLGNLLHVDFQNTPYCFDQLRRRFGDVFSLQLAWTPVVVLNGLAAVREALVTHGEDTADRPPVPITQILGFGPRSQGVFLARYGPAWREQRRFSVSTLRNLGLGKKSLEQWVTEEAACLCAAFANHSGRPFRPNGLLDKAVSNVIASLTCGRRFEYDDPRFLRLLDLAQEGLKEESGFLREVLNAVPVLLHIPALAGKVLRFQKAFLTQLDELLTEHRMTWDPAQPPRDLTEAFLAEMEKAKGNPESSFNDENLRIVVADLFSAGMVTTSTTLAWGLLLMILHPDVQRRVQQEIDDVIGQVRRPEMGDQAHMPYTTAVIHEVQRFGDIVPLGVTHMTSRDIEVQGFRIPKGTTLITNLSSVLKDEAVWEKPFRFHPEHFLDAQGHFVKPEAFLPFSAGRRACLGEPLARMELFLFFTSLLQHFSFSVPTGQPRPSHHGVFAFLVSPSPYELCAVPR
Chain of human serotonin transporter (P31645 whole entry): as the sequence (P31645 whole entry) above
Chain of human norepinephrine transporter (P23975 whole entry): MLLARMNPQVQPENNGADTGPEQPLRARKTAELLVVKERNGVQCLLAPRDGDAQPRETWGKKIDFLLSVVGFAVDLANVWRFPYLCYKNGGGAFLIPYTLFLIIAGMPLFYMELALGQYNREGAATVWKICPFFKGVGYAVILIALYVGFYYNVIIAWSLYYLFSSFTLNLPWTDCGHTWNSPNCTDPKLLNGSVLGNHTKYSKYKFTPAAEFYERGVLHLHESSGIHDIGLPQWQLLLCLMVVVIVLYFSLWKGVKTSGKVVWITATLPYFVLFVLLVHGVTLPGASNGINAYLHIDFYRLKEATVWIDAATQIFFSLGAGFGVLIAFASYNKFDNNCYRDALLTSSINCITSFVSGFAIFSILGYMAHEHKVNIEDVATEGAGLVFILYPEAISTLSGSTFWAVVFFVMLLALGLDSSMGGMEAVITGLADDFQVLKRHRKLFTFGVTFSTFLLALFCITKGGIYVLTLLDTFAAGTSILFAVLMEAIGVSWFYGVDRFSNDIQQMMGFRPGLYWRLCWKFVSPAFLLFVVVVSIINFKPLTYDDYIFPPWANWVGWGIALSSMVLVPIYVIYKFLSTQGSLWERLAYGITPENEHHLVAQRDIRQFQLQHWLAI
T2 sequence (P23975 whole entry): as above
T6 sequence (Q63380 1-617): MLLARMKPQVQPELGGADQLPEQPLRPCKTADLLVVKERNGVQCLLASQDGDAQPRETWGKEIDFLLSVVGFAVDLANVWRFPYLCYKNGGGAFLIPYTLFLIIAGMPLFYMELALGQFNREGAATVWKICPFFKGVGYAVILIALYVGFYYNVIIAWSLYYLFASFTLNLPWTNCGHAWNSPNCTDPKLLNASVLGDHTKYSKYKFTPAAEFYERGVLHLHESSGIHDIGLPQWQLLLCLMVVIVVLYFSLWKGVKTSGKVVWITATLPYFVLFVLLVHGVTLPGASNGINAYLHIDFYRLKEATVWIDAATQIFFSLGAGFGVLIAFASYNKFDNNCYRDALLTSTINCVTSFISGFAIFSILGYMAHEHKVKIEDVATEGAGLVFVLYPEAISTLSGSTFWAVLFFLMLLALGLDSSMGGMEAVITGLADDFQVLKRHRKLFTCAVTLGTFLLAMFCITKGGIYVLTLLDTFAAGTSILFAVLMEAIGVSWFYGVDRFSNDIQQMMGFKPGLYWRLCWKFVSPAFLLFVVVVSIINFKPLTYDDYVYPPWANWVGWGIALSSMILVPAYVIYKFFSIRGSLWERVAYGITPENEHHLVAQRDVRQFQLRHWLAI

SMILES | Potency (rank-order of potency of binding; S = hSERT, N = hNET, D = hDAT) [4] | Potency Range (difference between most potent and least potent binding) [4] [fold] | IC50 [5, 14] [nM] | IC50 [6] [µM] | Blocking of hERG channel compared with PRC200-SS [6] | Immobility in forced swim test vs saline [7] | Swimming in forced swim test vs saline [7] | Antidepressant activity in forced swim test compared with imipramine (15 mg/kg IP) [7] | also measured
CNC[C@H](c1ccc2ccccc2c1)[C@H](F)c1ccccc1 [MCJ001-F-SS, (2S,3S)-3-fluoro-N-methyl-2-(naphthalen-2-yl)-3-phenylpropan-1-amine] | S > N > D | 29 | 60 | 51.8 | weaker than PRC200-SS at blocking this channel | statistically (P<0.04) less immobility | statistically (P<0.04) more swimming behavior | antidepressant activity that was similar to that observed in rats treated with the positive control | Kd [1]: 0.82 ± 0.09 nM; Binding at hSERT compared to PRC200-SS ([1]; in words): greater binding at hSERT; Kd [2]: 1.3 ± 0.2 nM; Kd [3]: 23.5 ± 0.9 nM; Binding at hDAT compared to PRC200-SS ([3]; in words): Enhanced binding to hDAT
CNC[C@H](c1ccc2ccccc2c1)[C@H](O)c1ccccc1 [PRC200-SS, (1S,2S)-3-(methylamino)-2-(naphthalen-2-yl)-1-phenylpropan-1-ol, reference compound] | N > S > D | 45 |  | 32.6 |  | statistically (P<0.04) less immobility | statistically (P<0.04) more swimming behavior | antidepressant activity that was similar to that observed in rats treated with the positive control | Potency (rank-order of potency of binding; S = hSERT, N = hNET, D = hDAT) ([4]; listed as PRC200): N>S>D; IC50 [5]: 80 nM; Ki [8]: 2.12 ± 0.9 nM; Ki [9]: 6 ± 2 nM; Ki [10]: 61 ± 4 nM; Potency (rank order, transport into rat brain synaptosomal preparations) [11]: S > N > D; Ki [12]: 6 ± 2 nM; Ki [13]: 2.8 ± 0.4 nM
CNC[C@H](c1ccc2ccccc2c1)[C@H](OC(C)=O)c1ccccc1 [MCJ001-OAc-SS, (1S,2S)-3-(methylamino)-2-(naphthalen-2-yl)-1-phenylpropyl acetate] | N > S > D | 3.4 | 600 |  | weaker than PRC200-SS at blocking this channel | statistically (P<0.04) less immobility | statistically (P<0.04) more swimming behavior | antidepressant activity that was similar to that observed in rats treated with the positive control | Kd ([1]; Geometric Mean ± SEM, HCl salts, read-out: Equilibrium Dissociation Constant (KD) for Transporter Binding, hSERT (S)): 55 ± 6 nM; Kd ([3]; Geometric Mean ± SEM, HCl salts, read-out: Equilibrium Dissociation Constant (KD) for Transporter Binding, hDAT (D)): 150 ± 20 nM; Potency of inhibition at CYP2D6, in words ([5]; compared with PRC200-SS): markedly reduced the potency of inhibition at CYP2D6; IC50 ([6]; read-out: hERG (IC50), Rb+ efflux, eight doses in duplicate): 78.8 µM
